# Target: T1, IRAK-4 (Homo sapiens, UniProt Q9NWZ3)
# T1 sequence (Q9NWZ3 1-460): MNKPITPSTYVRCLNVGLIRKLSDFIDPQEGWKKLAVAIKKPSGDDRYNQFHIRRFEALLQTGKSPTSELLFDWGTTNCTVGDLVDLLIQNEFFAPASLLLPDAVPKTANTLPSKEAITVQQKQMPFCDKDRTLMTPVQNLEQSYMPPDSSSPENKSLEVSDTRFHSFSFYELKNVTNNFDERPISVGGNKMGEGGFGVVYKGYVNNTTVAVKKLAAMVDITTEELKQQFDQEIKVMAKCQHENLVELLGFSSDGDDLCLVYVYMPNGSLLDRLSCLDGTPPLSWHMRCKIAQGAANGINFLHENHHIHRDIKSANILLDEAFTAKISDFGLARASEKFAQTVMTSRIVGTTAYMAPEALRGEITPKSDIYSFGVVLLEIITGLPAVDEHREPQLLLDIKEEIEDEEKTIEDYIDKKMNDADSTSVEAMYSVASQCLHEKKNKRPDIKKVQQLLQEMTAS
# Assay: IRAK-4 ELISA, PBMC degradation
# Type: cell-based
# Set-up: endogenous in cells; host or cells: PBMC
# Conditions: treated overnight
# Procedure, shortened: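 IRAK-4 levels measured by matched-antibody-pair ELISA on lysates after overnight compound exposure. Cells seeded same day: PBMC at 2×10^6/ml, OCI-Ly10 at 1×10^6/ml.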
SMILES,DC50,Dmax,PBMC DC90
O=C1CCC(N2C(=O)c3ccc(N4CC(F)(CN5CCC(n6cc7cc(NC(=O)c8cnn9ccc(N%10C[C@H]%11C[C@@H]%10CO%11)nc89)c(OCC8CC8)cc7n6)CC5)C4)cc3C2=O)C(=O)N1 (stereo partly drawn) [Example 239],5 to 10 nM,< 70%,C (C represents a DC90 value ≥25.0 nM and <50 nM)
COc1cc(N2CC(F)(CN3CCC(n4cc5cc(NC(=O)c6cnn7cccnc67)c(OCC6CC6)cc5n4)CC3)C2)cc2c1C(=O)N(C1CCC(=O)NC1=O)C2 (stereo not drawn) [Example 242],1 to 5 nM,80 to 90%,A (A represents a DC90 value <10.0 nM)
COc1cc2c(cc1N1CC(F)(CN3CCC(n4cc5cc(NC(=O)c6cnn7cccnc67)c(OCC6CC6)cc5n4)CC3)C1)C(=O)N(C1CCC(=O)NC1=O)C2=O (stereo not drawn) [Example 244],1 to 5 nM,80 to 90%,B (B represents a DC90 value ≥10.0 nM and <25.0 nM)
O=C1CCC(N2C(=O)c3ccc(N4CCC5(CCC(CN6CCC(n7cc8cc(NC(=O)c9cnn%10cccnc9%10)c(OCC9CC9)cc8n7)CC6)CC5)CC4)cc3C2=O)C(=O)N1 (stereo not drawn) [Example 247],1 to 5 nM,≥ 90%,B (B represents a DC90 value ≥10.0 nM and <25.0 nM)
C[C@H](Oc1cc2nn(C3CCN(CC4(F)CN(c5ccc6c(c5)C(=O)N(C5CCC(=O)NC5=O)C6=O)C4)CC3)cc2cc1NC(=O)c1cnn2cccnc12)C1CC1 (stereo partly drawn) [Example 264],1 to 5 nM,70 to 80%,B (B represents a DC90 value ≥10.0 nM and <25.0 nM)
"O=C1CCC(N2C(=O)c3cccc(N4CC(F)(CN5CCC(n6cc7cc(NC(=O)c8cnn9cccnc89)c(OCC8CC8)cc7n6)CC5)C4)c3C2=O)C(=O)N1 (stereo not drawn) [Example 270, N-(6-(cyclopropylmethoxy)-2-(1-((1-(2-(2,6-dioxopiperidin-3-yl)-1,3-dioxoisoindolin-4-yl)-3-fluoroazetidin-3-yl)methyl)piperidin-4-yl)-2H-indazol-5-yl)pyrazolo[1,5-a]pyrimidine-3-carboxamide]",≥ 10 nM,< 70%,D (D represents a DC90 value ≥50 nM)
"CC(C)Oc1cc2nn(C3CCN(CC4(F)CN(c5cccc6c5C(=O)N(C5CCC(=O)NC5=O)C6=O)C4)CC3)cc2cc1NC(=O)c1cnn2cccnc12 (stereo not drawn) [Example 271, N-(2-(1-((1-(2-(2,6-dioxopiperidin-3-yl)-1,3-dioxoisoindolin-4-yl)-3-fluoroazetidin-3-yl)methyl)piperidin-4-yl)-6-isopropoxy-2H-indazol-5-yl)pyrazolo[1,5-a]pyrimidine-3-carboxamide]",5 to 10 nM,80 to 90%,D (D represents a DC90 value ≥50 nM)
"CC(C)Oc1cc2c(cc1NC(=O)c1cnn3cccnc13)CN([C@H]1CC[C@H](N3CCN(c4ccc5c(c4)CN(C4CCC(=O)NC4=O)C5=O)CC3)CC1)C2=O (stereo partly drawn) [Example 273, N-(2-((1r,4r)-4-(4-(2-(2,6-dioxopiperidin-3-yl)-1-oxoisoindolin-5-yl)piperazin-1-yl)cyclohexyl)-6-isopropoxy-1-oxoisoindolin-5-yl)pyrazolo[1,5-a]pyrimidine-3-carboxamide]",< 1 nM,≥ 90%,A (A represents a DC90 value <10.0 nM)
CC(C)Oc1cc2c(cc1NC(=O)c1cnn3cccnc13)CN(C1CCN(C3(C)CN(c4ccc5c(c4)CN(C4CCC(=O)NC4=O)C5=O)C3)CC1)C2=O (stereo not drawn) [Example 275],< 1 nM,≥ 90%,A (A represents a DC90 value <10.0 nM)
CC(C)Oc1cc2c(cc1NC(=O)c1cnn3cccnc13)CN([C@H]1CC[C@@H](N3CCN(c4ccc5c(c4)CN(C4CCC(=O)NC4=O)C5=O)CC3)CC1)C2=O (stereo partly drawn) [Example 276],< 1 nM,80 to 90%,A (A represents a DC90 value <10.0 nM)
CC(C)Oc1cc2c(cc1NC(=O)c1cnn3cccnc13)CN([C@H]1CC[C@@H](N3CC4(CN(c5ccc6c(c5)CN(C5CCC(=O)NC5=O)C6=O)C4)C3)CC1)C2=O (stereo partly drawn) [Example 277],< 1 nM,≥ 90%,A (A represents a DC90 value <10.0 nM)
CC(C)Oc1cc2c(cc1NC(=O)c1cnn3cccnc13)CN([C@H]1CC[C@H](N3CC4(CN(c5ccc6c(c5)CN(C5CCC(=O)NC5=O)C6=O)C4)C3)CC1)C2=O (stereo partly drawn) [Example 284],< 1 nM,≥ 90%,A (A represents a DC90 value <10.0 nM)
"CC(C)Oc1cc2c(cc1NC(=O)c1cnn3cccnc13)CN(C1CCN(CC3CCN(c4ccc(C(=O)NC5CCC(=O)NC5=O)c(F)c4)CC3)CC1)C2=O (stereo not drawn) [Example 286, N-[2-[1-[[1-[4-[(2,6-dioxo-3-piperidyl)carbamoyl]-3-fluoro-phenyl]-4-piperidyl]methyl]-4-piperidyl]-6-isopropoxy-1-oxo-isoindolin-5-yl]pyrazolo[1,5-a]pyrimidine-3-carboxamide]",1 to 5 nM,≥ 90%,B (B represents a DC90 value ≥10.0 nM and <25.0 nM)
O=C1CCC(NC(=O)c2ccc(N3CC(F)(CN4CCC(n5cc6cc(NC(=O)c7cnn8cccnc78)c(OCC7CC7)cc6n5)CC4)C3)cc2F)C(=O)N1 (stereo not drawn) [Example 291],1 to 5 nM,≥ 90%,B (B represents a DC90 value ≥10.0 nM and <25.0 nM)
CC(C)Oc1cc2c(cc1NC(=O)c1cnn3cccnc13)CN(C1CCN(CC3CN(c4ccc(C(=O)NC5CCC(=O)NC5=O)c(F)c4)C3)CC1)C2=O (stereo not drawn) [Example 292],< 1 nM,≥ 90%,A (A represents a DC90 value <10.0 nM)
CC(C)Oc1cc2nn(C3CCN(CC4(F)CN(c5ccc(C(=O)NC6CCC(=O)NC6=O)c(F)c5)C4)CC3)cc2cc1NC(=O)c1cnn2cccnc12 (stereo not drawn) [Example 293],1 to 5 nM,≥ 90%,B (B represents a DC90 value ≥10.0 nM and <25.0 nM)
CC(C)Oc1cc2c(cc1NC(=O)c1cnn3cccnc13)CN(C1CCN(CC3(F)CN(c4ccc(C(=O)NC5CCC(=O)NC5=O)c(F)c4)C3)CC1)C2=O (stereo not drawn) [Example 297],1 to 5 nM,≥ 90%,B (B represents a DC90 value ≥10.0 nM and <25.0 nM)
O=C1CCC(NC(=O)c2ccc(N3CC(F)(CN4CCC(N5Cc6cc(NC(=O)c7cnn8cccnc78)c(OCC7CC7)cc6C5=O)CC4)C3)cc2F)C(=O)N1 (stereo not drawn) [Example 298],≥ 10 nM,≥ 90%,D (D represents a DC90 value ≥50 nM)
CC(C)Oc1cc2c(cc1NC(=O)c1cnn3ccc(N4CCOCC4)nc13)CN(C1CCC(N(C)C3CN(c4ccc5c(c4)CN(C4CCC(=O)NC4=O)C5=O)C3)CC1)C2=O (stereo not drawn) [Example 315],5 to 10 nM,< 70%,D (D represents a DC90 value ≥50 nM)
CC(C)Oc1cc2c(cc1NC(=O)c1cnn3cccnc13)CN(C1CCC(N(C)C3CCN(c4ccc5c(c4)C(=O)N(C4CCC(=O)NC4=O)C5=O)CC3)CC1)C2=O (stereo not drawn) [Example 316],< 1 nM,≥ 90%,A (A represents a DC90 value <10.0 nM)
CC(C)Oc1cc2nn([C@H]3CC[C@H](N(C)C4CCN(c5ccc6c(c5)C(=O)N(C5CCC(=O)NC5=O)C6=O)CC4)CC3)cc2cc1NC(=O)c1cnn2cccnc12 (stereo partly drawn) [Example 317],< 1 nM,≥ 90%,A (A represents a DC90 value <10.0 nM)
CC(C)Oc1cc2nn([C@H]3CC[C@H](N(C)C4CN(c5ccc6c(c5)C(=O)N(C5CCC(=O)NC5=O)C6=O)C4)CC3)cc2cc1NC(=O)c1cnn2cccnc12 (stereo partly drawn) [Example 318],< 1 nM,≥ 90%,A (A represents a DC90 value <10.0 nM)
CCN(C1CN(c2ccc3c(c2)C(=O)N(C2CCC(=O)NC2=O)C3=O)C1)[C@H]1CC[C@H](n2cc3cc(NC(=O)c4cnn5cccnc45)c(OC(C)C)cc3n2)CC1 (stereo partly drawn) [Example 319],1 to 5 nM,80 to 90%,A (A represents a DC90 value <10.0 nM)
CCN(C1CN(c2cccc3c2C(=O)N(C2CCC(=O)NC2=O)C3=O)C1)[C@H]1CC[C@H](n2cc3cc(NC(=O)c4cnn5cccnc45)c(OC(C)C)cc3n2)CC1 (stereo partly drawn) [Example 320],≥ 10 nM,80 to 90%,D (D represents a DC90 value ≥50 nM)
COc1cc(N2CC(N(C)[C@H]3CC[C@H](N4Cc5cc(NC(=O)c6cnn7cccnc67)c(OC(C)C)cc5C4=O)CC3)C2)cc2c1C(=O)N(C1CCC(=O)NC1=O)C2=O (stereo partly drawn) [Example 321],1 to 5 nM,≥ 90%,A (A represents a DC90 value <10.0 nM)
CCN(C1CN(c2ccc(C(=O)NC3CCC(=O)NC3=O)c(F)c2)C1)[C@H]1CC[C@H](n2cc3cc(NC(=O)c4cnn5cccnc45)c(OC(C)C)cc3n2)CC1 (stereo partly drawn) [Example 322],1 to 5 nM,≥ 90%,A (A represents a DC90 value <10.0 nM)
CN(C1CCC(n2cc3cc(NC(=O)c4cnn5cccnc45)c(OCC4CC4)cc3n2)CC1)C1CCN(c2ccc3c(c2)C(=O)N(C2CCC(=O)NC2=O)C3=O)CC1 (stereo not drawn) [Example 323],< 1 nM,≥ 90%,A (A represents a DC90 value <10.0 nM)
CN(C1CN(c2ccc3c(c2)CN(C2CCC(=O)NC2=O)C3=O)C1)[C@H]1CC[C@H](n2cc3cc(NC(=O)c4cnn5cccnc45)c(OCC4CC4)cc3c2)CC1 (stereo partly drawn) [Example 324],< 1 nM,≥ 90%,A (A represents a DC90 value <10.0 nM)

# From patent publication US20230099344A1, “COMPOUNDS AND METHODS FOR THE TARGETED DEGRADATION OF IRAK-4” (Arvinas Operations, Inc., priority 2021, published 2023)
